Assay results reported in US11136339B2, “Dihydroartemisinin diploid derivative, pharmaceutical composition thereof, and application” (priority 2017, dated 2021).
≈ marks a conversion by molar mass, not a printed value.

How the values were obtained:
in vivo = conditions: female, BALB/c, mouse, iv, 10 mg/kg
Method: BALB/c mice (female, five weeks, 20 g to 22 g) were divided into four groups (three mice in each group). […] A PBS solution of drugs was injected through tail vein.
Blood samples were respectively taken at predetermined times (0.25 h, 0.5 h, 1 h, 3 h, 6 h, 12 h, 24 h and 48 h) and centrifuged at 3,000 rpm for 10 min to obtain plasma.

[1] = tested on: MCF-7: human breast cancer cells; assay: Human cancer cell killing test by MTT method, MCF-7; assay type: cell-based; conditions: MCF7, 96 h, read-out: IC50 MCF-7
Method: (§1) Well-growing tumor cells were collected, a RPM11640 medium containing 10% fetal bovine serum was used to prepare […] cell suspension, the tumor cells were inoculated in a 96-well culture plate, and 100 μL of the cell suspension (containing 1000 tumor cells) was added into each well, cultured in 5% CO2 incubator at 37° C. for 24 h, and then added with drugs (see Table 2). Blank control and solvent control were set in the experiment, and tested samples were set with four concentrations, with three parallel wells for each concentration, and cultured in 5% CO2 incubator at 37° C. for 4 days. A culture solution was discarded, and 100 μL of MTT solution (0.4 mg/mL, RPM11640 preparation) was added into each well and incubated at 37° C. for 4 h. A supernatant was discarded, 150 μL of […] was added into each well to dissolve particles, and after slight shaking, an OD value was measured at a detection wavelength of 540 nm and a reference wavelength of 450 nm with a 550 microplate reader.
(§2) Result calculation: a dose-response curve can be obtained by plotting different concentrations of drugs and inhibition rates to cells, from which the median inhibitory concentration (IC50) can be obtained, and results are shown in Table 2. […] This is probably because that the artesunate is released slowly. […]

[2] = tested on: Hep G2: human liver cancer cells; assay: Human cancer cell killing test by MTT method, Hep G2; assay type: cell-based; conditions: HepG2, 96 h, read-out: IC50 Hep G2
Method: as §1, §2

HeLa: = assay: Human cancer cell killing test by MTT method, HeLa; assay type: cell-based; conditions: 96 h, read-out: IC50 HeLa
Method: as §1, §2

[3] = tested on: HL-60: human promyelocytic leukemia cells; assay: Human cancer cell killing test by MTT method, HL-60; assay type: cell-based; conditions: HL-60, 96 h, read-out: IC50 HL-60
Method: as §1, §2

Solubility in water = assay type: physicochemical; conditions: 20 °C
Method: 0.1 g of product B was dissolved in 20 mL of dichloromethane, added with 10 ml of TFA and 1 mL of triisopropylsilane, and reacted at 25° C. for 2 h. A reaction solution was diluted to 50 mL with dichloromethane, washed three times with saturated NaHCO3, and dried with Na2SO4, and a solvent was evaporated by rotation to obtain crude products. The crude product was purified by silica gel column (a mobile phase was dichloromethane: methanol/65:25) to obtain product of dihydroartemisinin dithiodiglycolic acid dimer carboxyl betaine. […] MS: [M+H]^+ 1039.27.

[4] = tested on: human erythrocyte infected by plasmodium strain (3D7); assay: Plasmodium killing test, SYBR Green I fluorescence method; assay type: cell-based; conditions: 3D7, Erythrocyte, 48 h, read-out: median inhibitory concentration IC50 for killing plasmodium
Method: Method: a plasmodium killing effect of a sample measured by a SYBR Green I fluorescence method
Material: human erythrocyte infected by plasmodium strain (3D7) (0.5% parasitemia), RPMI 1640 complete medium, and carbon dioxide incubator (5% CO2, 5% O2, equilibrium N2, and 37° C.)
The medium was blank. The erythrocytes were incubated in a carbon dioxide incubator for 48 h (37° C.).

[5] = tested on: A549: human lung adenocarcinoma cells; assay: Human cancer cell killing test by MTT method, A549; assay type: cell-based; conditions: A549, 96 h, read-out: IC50 A549
Method: as §1, §2

[6] = In-vivo toxicity test of a mouse, oral administration; conditions: ICR mouse, male
From the text: Animal: ICR mouse, male, 18 g to 22 g, purchased from Vital River Laboratory Animal Technology Co., Ltd.

Row | Structure (SMILES) | AUC(0-t) (in vivo) [ng·h/mL] | Cmax (in vivo) [ng/mL] | MRT last (in vivo) [h] | clearance (in vivo) [mL/min/kg] | half-life (in vivo) [h] | IC50 [1] [µg/mL] | IC50 [2] [µg/mL] | IC50 (HeLa:) [µg/mL] | IC50 [3] [µg/mL] | solubility (Solubility in water) [µg/mL] | IC50 [4] [nM] | IC50 [5] [µg/mL] | Oral median lethal dose [6] [mg/kg weight]
1 | C[C@H]1[C@H](OC(=O)CCC(=O)O)O[C@@H]2O[C@@]3(C)CC[C@H]4[C@H](C)CC[C@@H]1[C@@]24OO3 [Artesunate] | 80700 | 23400 | 2.71 | 3.73 | 1.52 | 150 (≈ 390 µM) | 100 (≈ 260 µM) | 130 (≈ 338 µM) | 130 (≈ 338 µM) | 360 (≈ 936 µM) | 10.3 | 110 (≈ 286 µM) | –
2 | C[C@H]1[C@@H](O)O[C@@H]2O[C@@]3(C)CC[C@H]4[C@H](C)CC[C@@H]1[C@@]24OO3 [Dihydroartemisinin] | – | – | – | – | – | – | – | – | – | – | – | – | 810
